# T1: acetolactate synthase (Escherichia coli, UniProt P0DP90)
# T1 sequence (P0DP90 1-548): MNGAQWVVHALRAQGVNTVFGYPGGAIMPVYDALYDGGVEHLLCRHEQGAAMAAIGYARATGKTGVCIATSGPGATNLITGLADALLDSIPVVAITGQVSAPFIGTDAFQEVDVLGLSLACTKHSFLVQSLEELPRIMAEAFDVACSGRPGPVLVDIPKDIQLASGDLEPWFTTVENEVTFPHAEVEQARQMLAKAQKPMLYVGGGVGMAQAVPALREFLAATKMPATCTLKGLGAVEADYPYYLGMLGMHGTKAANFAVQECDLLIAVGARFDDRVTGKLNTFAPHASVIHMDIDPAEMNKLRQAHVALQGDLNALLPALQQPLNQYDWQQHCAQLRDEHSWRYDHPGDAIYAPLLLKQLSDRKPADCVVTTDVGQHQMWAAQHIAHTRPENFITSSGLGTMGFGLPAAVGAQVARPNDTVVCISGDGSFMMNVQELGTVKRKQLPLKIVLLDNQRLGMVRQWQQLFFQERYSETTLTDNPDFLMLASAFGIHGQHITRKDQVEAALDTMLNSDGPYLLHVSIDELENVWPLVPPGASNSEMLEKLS
# T1 sequence (P0ADG1 1-87 partner): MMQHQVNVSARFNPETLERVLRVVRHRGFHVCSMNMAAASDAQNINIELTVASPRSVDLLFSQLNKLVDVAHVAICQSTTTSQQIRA
# B1: acetolactate synthase (Escherichia coli K-12) (protein)
# chain: T1 sequence (P0DP90 1-548)
# How the values were obtained:
# Assay type in all cases: biochemical
# acetolactate synthase [1] = target: T1, acetolactate synthase; test: Oxygenase activity of acetolactate synthase with different substrates (oxygen-sensitive electrode)
# Method: (§1) To a 1 ml solution containing 0.1 M tricine-NaOH, pH 8, 10 mM MgCl2, 0.1 mM thiamine pyrophosphate, and 0.1 mM flavin adenine dinucleotide were added various concentrations of pyruvate (10 μM to 10 mM), α-keto-butyrate (10 μM to 80 mM), or acetolactate (0.15 to 5.5 mM). After allowing the solution to equilibrate with air (21 % O2), the level of dissolved oxygen was monitored by use of a commercially available oxygen-sensitive electrode (Hansatech) and polarographic electronics as described by Sweet et al. (Analytical Biochemistry 107:337 (1980)). In the absence of further additions, negligible oxygen was consumed over a 30 minute period. To initiate the consumption of oxygen, 20 μl of a 2 mg/ml stock solution of acetolactate synthase was added if pyruvate or α-acetolactate were used as substrate, or 5 μl of a 49 mg/ml stock solution of acetolactate synthase was added if α-ketobutyrate was used as substrate. The limiting rate of oxygen consumption at saturating concentrations of pyruvate, α-ketobutyrate, or α-acetolactate are illustrated in Table 1. The concentrations of α-acetolactate or α-ketobutyrate that gave half of the maximum rate (the Michaelis constant) were 1.4 mM and 32 μM, respectively.
# acetolactate synthase [2] = target: T1, acetolactate synthase; test: Sensitivity of the oxygenase activity of acetolactate synthase to herbicides (oxygen-sensitive electrode); conditions: 100 μM pyruvate as substrate; rate of oxygen consumption; pH 8; read-out: Concentration that Gives 50% Inhibition
# Method: as §1, with “The concentrations of α-acetolactate or α-ketobutyrate that gave half of the maximum rate (the Michaelis constant) were 1.4 mM and 32 μM, respectively.” left out
# Assays were conducted as described under Examples 1-3, except that 100 μM pyruvate was used as substrate. […] These values are similar to previously reported values (Schloss et al. Nature 331:360 (1988)) for inhibition of the enzyme monitored by use of the known acetolactate-forming reaction.
# [3] = substrate: CC(=O)C(C)(O)C(=O)O; test: Oxygenase activity of acetolactate synthase with different substrates (oxygen-sensitive electrode); conditions: other: oxygen consumption, pH 8, air-equilibrated
# Method: as §1
# [4] = substrate: CCC(=O)C(=O)O; test: as above; conditions: other: oxygen consumption, pH 8, air-equilibrated
# Method: as §1
molecule,measurement,setting,value
CC(=O)C(=O)O [Pyruvate],Km,"acetolactate synthase [1]; oxygen consumption, pH 8, air-equilibrated, read-out: Concentration that gave half of the maximum rate (the Michaelis constant)",< 10 µM
COc1nc(C)nc(NC(=O)NS(=O)(=O)c2ccccc2Cl)n1 [chlorsulfuron],IC50,acetolactate synthase [2],500 nM
COC(=O)c1ccccc1S(=O)(=O)NC(=O)Nc1nc(C)cc(C)n1 [sulfometuron methyl],IC50,acetolactate synthase [2],1000 nM
CC(=O)C(C)(O)C(=O)O (stereo not drawn) [α-Acetolactate],Maximum rate (μmoles of oxygen consumed/mg enzyme/min),"acetolactate synthase [1]; limiting rate of oxygen consumption at saturating substrate, 0.1 M tricine-NaOH pH 8, air-equilibrated (21 % O2)",0.20 μmoles of oxygen consumed/mg e
B1,Km,[3],1400 µM
same,Km,[4],32 µM
